In ChEMBL document CHEMBL4819042, “Aromatic and Aliphatic Apiuronides from the Bark of Cinnamomum cassia” (J Nat Prod, 2021):
The source made the active and inactive calls. The rule behind the calls is not given here.

Tested on: Mus musculus
Experiment: Analgesic activity against paclitaxel-induced cold allodynia in C57BL/6 mouse model at 10 mg/kg, po administered at day 14 and day 25 of post paclitaxel stimulation and measured after 1 hr
Assay type: functional, organism-based

Compound	Activity
CC1=C(C(C)CO[C@@H]2O[C@H](CO)[C@@H](O)[C@H](O)[C@H]2O)C[C@@]2(O)[C@@]3(C)CC(=O)O[C@@H]4[C@@H](C)CC[C@@]3(O)[C@@]4(O)[C@@]12O (some centres undefined)	Active
COc1cc([C@H]2OC[C@H]3[C@@H]2CO[C@@H]3c2cc(OC)c(O)c(OC)c2)cc(OC)c1O	Active
COc1cc(O[C@@H]2O[C@H](CO[C@@H]3OC[C@](O)(CO)[C@H]3O)[C@@H](O)[C@H](O)[C@H]2O)cc(OC)c1OC	Active
CC(C)[C@@]1(O)CC2(O)[C@@]3(O)[C@]45O[C@](O)(C[C@@]2(C)[C@@]4(O)CC[C@H](C)[C@H]5O)[C@@]31C	Active
